Source: patent publication US20110015153A1, “FLY CONTROL METHOD” (E.I. DU PONT DE NEMOURS AND COMPANY, priority 2007, published 2011)

System: Adult L. serricata (blowflies)
Test: Test A: adult blowflies on blood agar containing test compound, number of dead flies scored
Format: in vivo
Details: 4 flies in test
Procedure: Adult L. serricata (blowflies): Adult flies are placed on beds of blood agar (in individual test wells; 4 flies per well) in which test compound (3-bromo-1-(3-chloro-2-pyridinyl)-N-[4-cyano-2-methyl-6-[(methylamino)carbonyl]phenyl]-1H-pyrazole-5-carboxamide) was dissolved/suspended prior to hardening of agar. Flies can take up test compound by both ingestion and contact. Assays are scored by number of dead flies at 2 hours, 4 hours, and 24 hours.

| SMILES | Number dead flies at 2 hours (Rate 1 ppm in blood agar) | Number dead flies at 4 hours (Rate 1 ppm in blood agar) | Number dead flies at 24 hours (Rate 1 ppm in blood agar) | Number dead flies at 2 hours (Rate 10 ppm in blood agar) | Number dead flies at 4 hours (Rate 10 ppm in blood agar) | Number dead flies at 24 hours (Rate 10 ppm in blood agar) | Number dead flies at 2 hours (Rate 25 ppm in blood agar) | Number dead flies at 4 hours (Rate 25 ppm in blood agar) | Number dead flies at 24 hours (Rate 25 ppm in blood agar) | Number dead flies at 2 hours (Rate 50 ppm in blood agar) | Number dead flies at 4 hours (Rate 50 ppm in blood agar) | Number dead flies at 24 hours (Rate 50 ppm in blood agar) | Number dead flies at 2 hours (Rate 100 ppm in blood agar) | Number dead flies at 4 hours (Rate 100 ppm in blood agar) | Number dead flies at 24 hours (Rate 100 ppm in blood agar) |
| --- | --- | --- | --- | --- | --- | --- | --- | --- | --- | --- | --- | --- | --- | --- | --- |
| CCOP(=S)(OCC)Oc1nc(Cl)c(Cl)cc1Cl [Chloropyriphos] | 0 | 1 | 4 | 1 | 4 | 4 | 3 | 4 | 4 | 4 | 4 | 4 | 4 | 4 | 4 |
| CNC(=O)c1cc(C#N)cc(C)c1NC(=O)c1cc(Br)nn1-c1ncccc1Cl [Test compound, 3-bromo-1-(3-chloro-2-pyridinyl)-N-[4-cyano-2-methyl-6-[(methylamino)-carbonyl]phenyl]-1H-pyrazole-5-carboxamide] | 0 | 0 | 0 | 0 | 0 | 1 | 0 | 0 | 2 | 0 | 0 | 3 | 0 | 0 | 3 |
